Source: patent publication US20090325863A1, “Somatostatin analogs and IGF-I inhibition for breast cancer prevention” (priority 2008, published 2009)
“Also recorded” adds a separate entry of the source. Marks after values point to notes of the source that are not given here. *1 amine or outer side, *2 acyl side, *3 side chain or, on linkers, in order; H or OH if unused. Where a SMILES comes first, the peptide text is derived from it. Side-chain parts run from the residue outwards. [ ]: non-standard residue; d: D form. The star is where a group is joined. Ethylenediamine = C(CN[*:2])N[*:1]; Hyp = O=C(O)[C@@H]1C[C@@H](O)CN1; Phg = N[C@H](C(=O)O)c1ccccc1; CO = O=C([*:1])[*:2]; Bn = c1ccc(C*)cc1

Key:
VEGF = VEGF immunostaining in mammary glands of normally developing rats; assay type: in vivo, rat; conditions: 28 day old rats treated from day 21; gland cells and mast cells
From the text: (§1) They were found in both gland cells and mast cells.

[1] = system: mast cells in mammary glands; experiment: Mast cells and mammary development in normally developing rats treated from day 21 to 28; assay type: in vivo, rat; conditions: for Mast cell density stromal / Mast cell density around glands: 28 day old rats treated from day 21, 3 animals; for Mast cell density stromal: normal 3.5 ± 0.8; for Mast cell density around glands: normal 11.5 ± 1.6
From the text: (§2) We have found for the first time that mast cells play a role in normal mammary development. Mast cells appear around developing mammary gland structures in rats. […] The same animals when they were 21 days old were given SOM230. […] The mast cells are found directly around the developing glands in the stromal compartment.
Overall, the number of mast cells/mm^2 was reduced by SOM230 treatment, as per TABLE 7 below. Mast cells surrounding glands and those elsewhere in the stromal compartment were both reduced.

SSTR-5 = SSTR-5 (Homo sapiens, UniProt P35346); conditions: cited from earlier work
[2] = system: mammary hyperplasia induced by hGH and E2; experiment: Mammary hyperplasia model induced by hGH and E2, counts in histological sections; assay type: in vivo, rat; conditions: for Mild# (mild hyperplasia): GH + E2 control 4.2 ± 0.6, E2 1.9 ± 0.2; for Moderate# (moderate hyperplasia): GH + E2 control 5.0 ± 0.7, E2 0; for Florid# (florid hyperplasia): GH + E2 control 9.6 ± 0.1, E2 0; for Total# (total number of glands): hypophysectomized, oophorectomized female rats, hGH 600 μg + E2, 7 days, GH + E2 control 71.9 ± 5.4, E2 42.2 ± 1.4; for Florid#: GH + E2 control 10 ± 0.7
From the text: To test whether SOM230, a drug that inhibits IGF-I action on the breast, was effective, we implemented a model of hyperplasia and then determined whether the hyperplasia could be inhibited by SOM230. We administered human growth hormone (600 mcg in alzet pumps) for a week, and gave this together with estradiol (an estrogen). At the end of 7 days florid hyperplasia developed. Mammary hyperplasia was modeled by treating hypophysectomized, oophorectomized female rats with high doses human growth hormone (hGH) (600 μg in Alzet pumps) and follicular phase concentrations of estradiol (E2) administered in silastic capsules for 7 days. In the absence of hGH, these animals would not undergo mammary development. In animals receiving E2 alone, there was virtually no hyperplasia. When hGH was added to E2 there were more glands (42.2±1.4 vs. 71.9±5.4, E2 vs. E2+hGH, respectively). There was no florid hyperplasia with E2 treatment. When hGH was given also, 26.6% of the glands were hyperplastic, with 50% of those being floridly hyperplastic, 7% moderate hyperplasia and 5.9% mild hyperplasia. […] This is shown in histological sections (FIG. 1), graphically (FIG. 2) and in tabular form below (TABLE 1).
Background: Antiestrogens or aromatase inhibitors are used for breast cancer chemoprevention. These treatments cause unpleasant side effects including hot flashes and vaginal dryness. We have previously shown that IGF-I is required to permit estrogen and progesterone action in the mammary gland. […] Menopausal symptoms would not likely to occur with SOM230 since estrogen is not lowered. Material and Methods: We have approached this issue in several ways. 1) We developed a model of hyperplasia in hypophysectomized and oophorectomized female rats. Hyperplasia was induced by treatment with 600 mcg hGH and follicular phase concentrations of estradiol. Hyperplasia was assessed histologically in sections of mammary gland. 2) To assess translatability to humans we assessed cell proliferation and apoptosis in normal human breast from reduction mammoplasties and samples of usual hyperplasia. 3) We also determined availability of SST receptors in samples of atypical ductal hyperplasia and DCIS, and 4) We have begun to determine whether SOM230 will prevent hyperplasia in humans at risk for breast cancer as it does in rats.
The degree of hyperplasia was analyzed in 3 histological sections at different levels in 3 test animals given GH+E2. The different types of hyperplasia were counted. For example, the total mean number of ducts was 88.3. Of those ducts, there were 19.7 or 22.3% of total ducts that were hyperplastic. The breakdown was a mean of 10 ducts with florid hyperplasia (lumen is distended and mostly obliterated by epithelial cells), a mean of 5.3 ducts with moderate hyperplasia (an increase in cell layers to >4 cells thick), and a mean of 4.4 characterized as mild hyperplasia (no more than 4 cell thickness).
There were 4 additional treatment groups and one E2 treated control group.

[3] = system: Ki67 positive cells in mammary gland; experiment: Cell proliferation by Ki67 immunostaining in mammary gland, hGH+E2 model; assay type: in vivo, rat; conditions: for % Ki67 positive cells, Normal gland / % Ki67 positive cells, DH structure Mod + mild: 3 animals; for % Ki67 positive cells, Normal gland: hGH + E2 control 5.1 ± 0.1; for % Ki67 positive cells, DH structure Mod + mild: hGH + E2 control 22.5 ± 1.6 (P < 0.05); for cell proliferation / Ki67 staining (in words): hGH+E2 model versus hGH+E2 control
Procedure: The histological sections were also analyzed for cell proliferation by Ki67 immunostaining and for apoptosis by TUNEL. Twenty five percent of cells in areas of florid hyperplasia were stained for Ki67. […] When the glands were normal and not hyperplastic, only 5.1% stained for Ki67. […] The immunostaining for Ki67 can be seen in FIG. 3.
We next determined the effects of the various treatment regimens on cell proliferation as assessed by Ki67 immunostaining. […] The percent Ki67 positive cells is depicted in TABLE 4 below.

SSTR-3 = SSTR-3 (Homo sapiens, UniProt P32745); conditions: cited from earlier work
[4] = system: pYIRS-1 (phosphorylated IRS-1); experiment: pYIRS-1 staining in glands and mast cells of normally developing rats; assay type: in vivo, rat; conditions: 28 day old female rats treated from day 21
From the text: as §2
That these mast cells are directly stimulated by IGF-I is supported by the observation that phosphorylated IRS-1 was reduced in mast cells on exposure to SOM230. The action of SOM230 in mammary gland is therefore one of IGF-I action inhibition. […] The one on the right panel is from an animal treated with SOM230. Not only was pYIRS-I reduced in glands but mast cells were reduced as well.

Factor VIII = Factor VIII immunostaining in mammary glands of normally developing rats; assay type: in vivo, rat; conditions: 28 day old rats treated from day 21; gland cells and mast cells
From the text: as §1

mammary development = conditions: rats; Ruan et al (2006); cited from earlier work

Chain of SSTR-5 (P35346 whole entry, species assumed): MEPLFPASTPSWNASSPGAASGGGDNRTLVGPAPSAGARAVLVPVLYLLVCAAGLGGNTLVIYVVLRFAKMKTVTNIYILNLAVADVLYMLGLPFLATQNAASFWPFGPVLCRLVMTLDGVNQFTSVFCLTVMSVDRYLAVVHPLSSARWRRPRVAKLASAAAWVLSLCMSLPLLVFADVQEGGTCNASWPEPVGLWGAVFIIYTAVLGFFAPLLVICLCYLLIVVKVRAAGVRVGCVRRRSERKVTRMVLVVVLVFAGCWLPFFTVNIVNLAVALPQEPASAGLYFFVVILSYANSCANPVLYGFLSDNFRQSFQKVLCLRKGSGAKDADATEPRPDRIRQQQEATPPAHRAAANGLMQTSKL
Chain of SSTR-3 (P32745 whole entry, species assumed): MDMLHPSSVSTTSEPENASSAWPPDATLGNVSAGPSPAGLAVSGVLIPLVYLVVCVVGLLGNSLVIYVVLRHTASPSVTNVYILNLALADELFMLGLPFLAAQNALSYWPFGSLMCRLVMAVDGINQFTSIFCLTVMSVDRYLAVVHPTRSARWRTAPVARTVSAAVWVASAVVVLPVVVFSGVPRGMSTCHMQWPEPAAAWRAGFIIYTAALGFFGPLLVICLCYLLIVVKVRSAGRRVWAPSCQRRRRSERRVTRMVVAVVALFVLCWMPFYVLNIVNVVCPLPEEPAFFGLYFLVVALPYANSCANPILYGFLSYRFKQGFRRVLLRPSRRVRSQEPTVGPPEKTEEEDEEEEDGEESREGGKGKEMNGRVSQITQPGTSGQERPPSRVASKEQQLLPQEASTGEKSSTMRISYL

NCCCC[C@@H]1NC(=O)[C@@H](Cc2c[nH]c3ccccc23)NC(=O)[C@H](c2ccccc2)NC(=O)[C@@H]2C[C@@H](OC(=O)NCCN)CN2C(=O)[C@H](Cc2ccccc2)NC(=O)[C@H](Cc2ccc(OCc3ccccc3)cc2)NC1=O [SOM230] (cyclo([Hyp]([CO-Ethylenediamine])[Phg][dW]KY(Bn)F))
expression of VEGF (immunostaining) (VEGF): reduced expression | Mast cell density stromal [1]: reduced | Mast cell density stromal ([1]; listed as SOM): 1.1 ± 0.3^d MC#/1 mm^2 | Mast cell density around glands [1]: reduced | Mast cell density around glands ([1]; listed as SOM): 3.7 ± 0.7^b MC#/1 mm^2 | micro vessel density ([1]; normally developing glands versus SOM230 treated): greater in glands that were developing normally | mammary development ([1]; normally developing rats treated from day 21 to 28): inhibit mammary development | affinity for SSTR-5 (SSTR-5): has affinity | number of areas of florid hyperplasia ([2]; Example 3, from 18.9±1.3 with hGH and E2 (p<0.001)): 7.5±0.5 | Mild# (mild hyperplasia) ([2]; Table 1, 7 days): 3.0±0.4 | Mild# (mild hyperplasia) ([2]; Table 1, 7 days, listed as SOM): 3.0 ± 0.4 | Moderate# (moderate hyperplasia) ([2]; Table 1, 7 days): 3.8±0.4 | Moderate# (moderate hyperplasia) ([2]; Table 1, 7 days, listed as SOM): 3.8 ± 0.4 | Florid# (florid hyperplasia) ([2]; Table 1, 7 days): 0.8±0.2 | Florid# (florid hyperplasia) ([2]; Table 1, 7 days, listed as SOM): 0.8 ± 0.2 | DH# (hyperplastic structures) ([2]; Table 1, 7 days, GH + E2 control 18.9 ± 1.3, E2 1.9 ± 0.2): 7.5 ± 0.5^b | Total# (total number of glands) ([2]; Table 1): 46.0±2.8 | Total# (total number of glands) ([2]; Table 1, listed as SOM): 46.0 ± 2.8 | Total# ([2]; Table 3, SOM230 30 mcg/h/kg, Octreotide 30 mcg/hr/kg, Tamoxifen 30 mg/21 day release pellet, GH + E2 control 88.3 ± 6.3): 61.4 ± 7.0 | Mild# ([2]; Table 3, same doses, GH + E2 control 4.4 ± 0.6): 3.3 ± 0.3 | Moderate# ([2]; Table 3, same doses, GH + E2 control 5.3 ± 0.6): 3.8 ± 0.4 | Florid# ([2]; Table 3, same doses): 1.7 | Florid# ([2]; Table 3, same doses, listed as SOM): 1.7 ± 0.6 | DH# ([2]; Table 3, same doses, GH + E2 control 19.7 ± 1.5): 8.8 ± 0.7^b | hyperplasia / breast hyperplastic lesions (in words) ([2]; given together with hGH and estradiol, 7 days): hyperplasia was significantly inhibited; also recorded: reduction in the number and size of breast hyperplastic lesions; also recorded: reduction in hyperplasia | % Ki67 positive cells, Normal gland [3]: no significant reduction | % Ki67 positive cells, Normal gland ([3]; listed as SOM): 4.3 ± 0.4% | % Ki67 positive cells, DH structure Mod + mild [3]: 14.2% | % Ki67 positive cells, DH structure Mod + mild ([3]; listed as SOM): 14.2 ± 2.5% | cell proliferation / Ki67 staining (in words) [3]: reduction in cell proliferation; also recorded: decrease in Ki67 staining | cell proliferation / Ki67 staining (in words) ([3]; listed as SOM 230): remarkable decrease in cell division | affinity for SSTR-3 (SSTR-3): has affinity | pYIRS-1 in glands and mast cells [4]: inhibited; also recorded: reduced | expression of Factor VIII (immunostaining) (Factor VIII): reduced expression | IRS-1 phosphorylation in the mammary gland (mammary development): reduction in IRS-1 phosphorylation | mammary development (mammary development): prevents mammary development
